Starred links: 1 amine or outer side, 2 acyl side, 3 side chain; linkers in the order of their positions; H or OH if unused. Non-standard residues stand in square brackets, D forms with d. Residues, ends and D or L forms follow the SMILES beside them. Groups on a side chain read outwards from the residue. *: point of attachment. C20 diacid = O=C(O)CCCCCCCCCCCCCCCCCCC(=O)*; C18 diacid = O=C(O)CCCCCCCCCCCCCCCCC(=O)*; γGlu = O=C(O)[C@H](CCC(=O)[*:2])N[*:1]; αMeF = C[C@](N)(Cc1ccccc1)C(=O)O; AEEA = NCCOCCOCC(=O)O; Aib = CC(C)(N)C(=O)O
Assays:
[1] = target: human glucagon receptor (hGCGR) (Homo sapiens, UniProt P47871); assay: cAMP production (HTRF) in CHO cells expressing hGCGR; assay type: cell-based; design: expressed in transfected cells; conditions: Table 6, peptides modified at position 17; cAMP in CHO hGCGR cells; geometric mean; read-out: hGluc-R EC50
Sequence of human glucagon receptor (hGCGR) (P47871 26-477): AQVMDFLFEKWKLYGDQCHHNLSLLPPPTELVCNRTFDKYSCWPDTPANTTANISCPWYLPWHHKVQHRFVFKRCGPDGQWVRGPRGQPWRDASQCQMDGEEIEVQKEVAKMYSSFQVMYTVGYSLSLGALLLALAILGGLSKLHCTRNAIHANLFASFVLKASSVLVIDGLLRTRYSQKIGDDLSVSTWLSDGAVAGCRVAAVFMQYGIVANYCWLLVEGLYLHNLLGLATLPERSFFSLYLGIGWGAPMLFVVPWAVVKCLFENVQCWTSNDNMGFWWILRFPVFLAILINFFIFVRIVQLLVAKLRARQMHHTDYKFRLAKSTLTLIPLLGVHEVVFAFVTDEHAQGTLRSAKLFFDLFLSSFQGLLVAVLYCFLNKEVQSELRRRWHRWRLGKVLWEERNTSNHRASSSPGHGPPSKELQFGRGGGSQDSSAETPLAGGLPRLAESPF
In short: (§1)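 Read-out: HTRF cAMP (anti-cAMP cryptate donor, cAMP-d2 acceptor in conjugate/lysis buffer), converted to % Delta F and fitted by 4-parameter logistic for EC50. Cell densities were 1×10^5 cells/mL (hGLP-1R) or 2×10^5 cells/mL (hGCGR). Stimulation lasted 30 min at room temperature.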

[2] = target: human GLP-1 receptor (hGLP-1R) (Homo sapiens, UniProt P43220); assay: cAMP production (HTRF) in CHO cells expressing hGLP-1R; assay type: cell-based; design: expressed in transfected cells; conditions: for EC50: Table 6, peptides modified at position 17, cAMP in CHO hGLP-1R cells, geometric mean, read-out: hGLP-1R EC50; for % Relative Potency Ratio: Table 6, % GLP-1R activity relative to GLP-1 / % GlucR activity relative to glucagon
Sequence of human GLP-1 receptor (hGLP-1R) (P43220 24-463): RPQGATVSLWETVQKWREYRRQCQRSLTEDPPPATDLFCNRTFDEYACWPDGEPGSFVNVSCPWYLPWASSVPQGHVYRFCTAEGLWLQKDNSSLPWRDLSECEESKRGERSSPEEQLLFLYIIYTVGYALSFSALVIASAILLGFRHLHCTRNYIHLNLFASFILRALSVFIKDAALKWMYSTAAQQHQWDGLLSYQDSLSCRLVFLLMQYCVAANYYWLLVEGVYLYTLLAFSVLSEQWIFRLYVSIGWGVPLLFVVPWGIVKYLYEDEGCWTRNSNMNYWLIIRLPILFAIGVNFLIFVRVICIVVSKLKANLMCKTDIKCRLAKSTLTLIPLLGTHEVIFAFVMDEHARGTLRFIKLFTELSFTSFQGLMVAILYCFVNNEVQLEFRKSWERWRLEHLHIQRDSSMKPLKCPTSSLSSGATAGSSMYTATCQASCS
In short: as §1

| SMILES | EC50 [1] [nM] | EC50 [2] [nM] | % Relative Potency Ratio [2] |
| --- | --- | --- | --- |
| CC(C)C[C@H](NC(=O)[C@H](Cc1c[nH]c2ccccc12)NC(=O)[C@H](CCCNC(=N)N)NC(=O)[C@@H](NC(=O)[C@H](Cc1ccccc1)NC(=O)[C@H](CC(=O)O)NC(=O)[C@H](CCC(N)=O)NC(=O)[C@H](C)NC(=O)[C@H](CCCNC(=N)N)NC(=O)[C@H](CCCCNC(=O)COCCOCCNC(=O)COCCOCCNC(=O)CC[C@H](NC(=O)CCCCCCCCCCCCCCCCCCC(=O)O)C(=O)O)NC(=O)[C@@H](NC(=O)[C@H](CC(=O)O)NC(=O)[C@H](CC(C)C)NC(=O)[C@](C)(Cc1ccccc1)NC(=O)[C@H](CCCCN)NC(=O)[C@H](CO)NC(=O)[C@@H](NC(=O)[C@H](CC(=O)O)NC(=O)[C@H](CO)NC(=O)[C@@H](NC(=O)[C@H](Cc1ccccc1)NC(=O)[C@@H](NC(=O)CNC(=O)[C@H](CCC(N)=O)NC(=O)C(C)(C)NC(=O)[C@@H](N)Cc1c[nH]cn1)[C@@H](C)O)[C@@H](C)O)C(C)C)[C@@H](C)O)C(C)C)C(=O)N[C@@H](CC(C)C)C(=O)N[C@@H](CCC(=O)O)C(=O)NC(C)(C)C(=O)N[C@@H](CCCCN)C(N)=O [Peptide 479] (H-H[Aib]QGTFTSDVSK[αMeF]LDTK([AEEA-AEEA-γGlu-C20 diacid])RAQDFVRWLLE[Aib]K-NH2; N-terminus assumed) | 0.207 | 0.0342 | 12.0 |
| CC(C)C[C@H](NC(=O)[C@H](Cc1c[nH]c2ccccc12)NC(=O)[C@H](CCC(N)=O)NC(=O)[C@@H](NC(=O)[C@H](Cc1ccccc1)NC(=O)[C@H](CC(=O)O)NC(=O)[C@H](CCCNC(=N)N)NC(=O)[C@H](C)NC(=O)[C@H](CCCNC(=N)N)NC(=O)[C@H](CCCCNC(=O)COCCOCCNC(=O)COCCOCCNC(=O)CC[C@H](NC(=O)CCCCCCCCCCCCCCCCC(=O)O)C(=O)O)NC(=O)[C@@H](NC(=O)[C@H](CC(=O)O)NC(=O)[C@H](CC(C)C)NC(=O)[C@](C)(Cc1ccccc1)NC(=O)[C@H](CCCCN)NC(=O)[C@H](CO)NC(=O)[C@@H](NC(=O)[C@H](CC(=O)O)NC(=O)[C@H](CO)NC(=O)[C@@H](NC(=O)[C@H](Cc1ccccc1)NC(=O)[C@@H](NC(=O)CNC(=O)[C@H](CCC(N)=O)NC(=O)C(C)(C)NC(=O)[C@@H](N)Cc1c[nH]cn1)[C@@H](C)O)[C@@H](C)O)C(C)C)[C@@H](C)O)C(C)C)C(=O)N[C@@H](CC(C)C)C(=O)N[C@@H](CCC(=O)O)C(=O)NC(C)(C)C(=O)N[C@@H](CCCCN)C(N)=O [Peptide 480] (H-H[Aib]QGTFTSDVSK[αMeF]LDTK([AEEA-AEEA-γGlu-C18 diacid])RARDFVQWLLE[Aib]K-NH2; N-terminus assumed) | 0.136 | 0.0126 | 21.4 |
| CC(C)C[C@H](NC(=O)[C@H](Cc1c[nH]c2ccccc12)NC(=O)[C@H](CCC(N)=O)NC(=O)[C@@H](NC(=O)[C@H](Cc1ccccc1)NC(=O)[C@H](CC(=O)O)NC(=O)[C@H](CCCNC(=N)N)NC(=O)[C@H](C)NC(=O)[C@H](CCCNC(=N)N)NC(=O)[C@H](CCCCNC(=O)COCCOCCNC(=O)COCCOCCNC(=O)CC[C@H](NC(=O)CCCCCCCCCCCCCCCCCCC(=O)O)C(=O)O)NC(=O)[C@@H](NC(=O)[C@H](CC(=O)O)NC(=O)[C@H](CC(C)C)NC(=O)[C@](C)(Cc1ccccc1)NC(=O)[C@H](CCCCN)NC(=O)[C@H](CO)NC(=O)[C@@H](NC(=O)[C@H](CC(=O)O)NC(=O)[C@H](CO)NC(=O)[C@@H](NC(=O)[C@H](Cc1ccccc1)NC(=O)[C@@H](NC(=O)CNC(=O)[C@H](CCC(N)=O)NC(=O)C(C)(C)NC(=O)[C@@H](N)Cc1c[nH]cn1)[C@@H](C)O)[C@@H](C)O)C(C)C)[C@@H](C)O)C(C)C)C(=O)N[C@@H](CC(C)C)C(=O)N[C@@H](CCC(=O)O)C(=O)NC(C)(C)C(=O)N[C@@H](CCCCN)C(N)=O [Peptide 481] (H-H[Aib]QGTFTSDVSK[αMeF]LDTK([AEEA-AEEA-γGlu-C20 diacid])RARDFVQWLLE[Aib]K-NH2; N-terminus assumed) | 0.35 | 0.0522 | 13.3 |
| CC(C)C[C@H](NC(=O)[C@H](Cc1c[nH]c2ccccc12)NC(=O)[C@H](CCC(N)=O)NC(=O)[C@@H](NC(=O)[C@H](Cc1ccccc1)NC(=O)[C@H](CC(=O)O)NC(=O)[C@H](CCC(N)=O)NC(=O)[C@H](C)NC(=O)[C@H](CCCNC(=N)N)NC(=O)[C@H](CCCCNC(=O)COCCOCCNC(=O)COCCOCCNC(=O)CC[C@H](NC(=O)CCCCCCCCCCCCCCCCC(=O)O)C(=O)O)NC(=O)[C@H](CO)NC(=O)[C@H](CCC(=O)O)NC(=O)[C@H](CC(C)C)NC(=O)[C@](C)(Cc1ccccc1)NC(=O)[C@H](CCCCN)NC(=O)[C@H](CO)NC(=O)[C@@H](NC(=O)[C@H](CC(=O)O)NC(=O)[C@H](CO)NC(=O)[C@@H](NC(=O)[C@H](Cc1ccccc1)NC(=O)[C@@H](NC(=O)CNC(=O)[C@H](CCC(N)=O)NC(=O)C(C)(C)NC(=O)[C@@H](N)Cc1c[nH]cn1)[C@@H](C)O)[C@@H](C)O)C(C)C)C(C)C)C(=O)N[C@@H](CC(C)C)C(=O)NC(C)(C)C(=O)N[C@@H](CCC(=O)O)C(=O)O [Peptide 482] (H-H[Aib]QGTFTSDVSK[αMeF]LESK([AEEA-AEEA-γGlu-C18 diacid])RAQDFVQWLL[Aib]E-OH; N-terminus assumed) | 0.691 | 0.19 | 7.2 |
| CC(C)C[C@H](NC(=O)[C@H](Cc1c[nH]c2ccccc12)NC(=O)[C@H](CCC(N)=O)NC(=O)[C@@H](NC(=O)[C@H](Cc1ccccc1)NC(=O)[C@H](CC(=O)O)NC(=O)[C@H](CCC(N)=O)NC(=O)[C@H](C)NC(=O)[C@H](CCCNC(=N)N)NC(=O)[C@H](CCCCNC(=O)COCCOCCNC(=O)COCCOCCNC(=O)CC[C@H](NC(=O)CCCCCCCCCCCCCCCCC(=O)O)C(=O)O)NC(=O)[C@@H](NC(=O)[C@H](CC(=O)O)NC(=O)[C@H](CC(C)C)NC(=O)[C@](C)(Cc1ccccc1)NC(=O)[C@H](CCCCN)NC(=O)[C@H](CO)NC(=O)[C@@H](NC(=O)[C@H](CC(=O)O)NC(=O)[C@H](CO)NC(=O)[C@@H](NC(=O)[C@H](Cc1ccccc1)NC(=O)[C@@H](NC(=O)CNC(=O)[C@H](CCC(N)=O)NC(=O)C(C)(C)NC(=O)[C@@H](N)Cc1c[nH]cn1)[C@@H](C)O)[C@@H](C)O)C(C)C)[C@@H](C)O)C(C)C)C(=O)N[C@@H](CC(C)C)C(=O)NC(C)(C)C(=O)N[C@@H](CCC(=O)O)C(=O)O [Peptide 483] | 0.169 | 0.178 | 1.9 |
| CC(C)C[C@H](NC(=O)[C@H](Cc1c[nH]c2ccccc12)NC(=O)[C@H](CCC(N)=O)NC(=O)[C@@H](NC(=O)[C@H](Cc1ccccc1)NC(=O)[C@H](CC(=O)O)NC(=O)[C@H](CCC(N)=O)NC(=O)[C@H](C)NC(=O)[C@H](CCCNC(=N)N)NC(=O)[C@H](CCCCNC(=O)COCCOCCNC(=O)COCCOCCNC(=O)CC[C@H](NC(=O)CCCCCCCCCCCCCCCCCCC(=O)O)C(=O)O)NC(=O)[C@@H](NC(=O)[C@H](CC(=O)O)NC(=O)[C@H](CC(C)C)NC(=O)[C@](C)(Cc1ccccc1)NC(=O)[C@H](CCCCN)NC(=O)[C@H](CO)NC(=O)[C@@H](NC(=O)[C@H](CC(=O)O)NC(=O)[C@H](CO)NC(=O)[C@@H](NC(=O)[C@H](Cc1ccccc1)NC(=O)[C@@H](NC(=O)CNC(=O)[C@H](CCC(N)=O)NC(=O)C(C)(C)NC(=O)[C@@H](N)Cc1c[nH]cn1)[C@@H](C)O)[C@@H](C)O)C(C)C)[C@@H](C)O)C(C)C)C(=O)N[C@@H](CC(C)C)C(=O)NC(C)(C)C(=O)N[C@@H](CCC(=O)O)C(=O)O [Peptide 484] (H-H[Aib]QGTFTSDVSK[αMeF]LDTK([AEEA-AEEA-γGlu-C20 diacid])RAQDFVQWLL[Aib]E-OH; N-terminus assumed) | 0.169 | 0.339 | 1.0 |
| CC(C)C[C@H](NC(=O)[C@H](Cc1c[nH]c2ccccc12)NC(=O)[C@H](CCC(N)=O)NC(=O)[C@@H](NC(=O)[C@H](Cc1ccccc1)NC(=O)[C@H](CC(=O)O)NC(=O)[C@H](CCC(N)=O)NC(=O)[C@H](C)NC(=O)[C@H](CCCNC(=N)N)NC(=O)[C@H](CCCCNC(=O)COCCOCCNC(=O)COCCOCCNC(=O)CC[C@H](NC(=O)CCCCCCCCCCCCCCCCCCC(=O)O)C(=O)O)NC(=O)[C@@H](NC(=O)[C@H](CC(=O)O)NC(=O)[C@H](CC(C)C)NC(=O)[C@](C)(Cc1ccccc1)NC(=O)[C@H](CCCCN)NC(=O)[C@H](CO)NC(=O)[C@@H](NC(=O)[C@H](CC(=O)O)NC(=O)[C@H](CO)NC(=O)[C@@H](NC(=O)[C@H](Cc1ccccc1)NC(=O)[C@@H](NC(=O)CNC(=O)[C@H](CCC(N)=O)NC(=O)C(C)(C)NC(=O)[C@@H](N)Cc1c[nH]cn1)[C@@H](C)O)[C@@H](C)O)C(C)C)[C@@H](C)O)C(C)C)C(=O)N[C@@H](CC(C)C)C(=O)NC(C)(C)C(=O)N[C@@H](CCC(=O)O)C(N)=O [Peptide 485] (H-H[Aib]QGTFTSDVSK[αMeF]LDTK([AEEA-AEEA-γGlu-C20 diacid])RAQDFVQWLL[Aib]E-NH2; N-terminus assumed) | 0.0904 | 0.219 | 0.8 |
| CC(C)C[C@H](NC(=O)[C@H](CC(=O)O)NC(=O)[C@H](CC(C)C)NC(=O)[C@](C)(Cc1ccccc1)NC(=O)[C@H](CCCCN)NC(=O)[C@H](CO)NC(=O)[C@@H](NC(=O)[C@H](CC(=O)O)NC(=O)[C@H](CO)NC(=O)[C@@H](NC(=O)[C@H](Cc1ccccc1)NC(=O)[C@@H](NC(=O)CNC(=O)[C@H](CCC(N)=O)NC(=O)C(C)(C)NC(=O)[C@@H](N)Cc1c[nH]cn1)[C@@H](C)O)[C@@H](C)O)C(C)C)C(=O)N[C@@H](CCCCNC(=O)COCCOCCNC(=O)COCCOCCNC(=O)CC[C@H](NC(=O)CCCCCCCCCCCCCCCCCCC(=O)O)C(=O)O)C(=O)N[C@@H](CCCNC(=N)N)C(=O)N[C@@H](C)C(=O)N[C@@H](CCC(N)=O)C(=O)N[C@@H](CC(=O)O)C(=O)N[C@@H](Cc1ccccc1)C(=O)N[C@H](C(=O)N[C@@H](CCCNC(=N)N)C(=O)N[C@@H](Cc1c[nH]c2ccccc12)C(=O)N[C@@H](CC(C)C)C(=O)N[C@@H](CC(C)C)C(=O)NC(C)(C)C(=O)N[C@@H](CCC(=O)O)C(=O)O)C(C)C [Peptide 486] | 0.166 | 0.42 | 0.8 |

Reference: patent publication US20250353891A1 (MEDIMMUNE LIMITED, priority 2022, published 2025)
